{"source": "paper PMC10794144", "about": "“A novel antibiotic class targeting the lipopolysaccharide transporter” (Nature, 2024)", "key": {"[1]": {"system": "E. coli ATCC 25922", "test": "microbe, parasite or virus in culture", "conditions": "for RO7223280 MIC 100%: E. coli ATCC 25922, read at 100%", "procedure": "(§1) MIC determinations were performed using the broth microdilution method and in line with CLSI guidelines M07 and M100 (refs. [37],[38]). Bacterial inocula were prepared by diluting a 0.5 McFarland suspension in CAMHB or lysogeny broth (LB) specifically for A. baylyi isolates. […] MIC values of all of the tested antibiotics were read as the lowest compound concentration inhibiting bacterial growth by naked eye or beyond which the OD600 ceased to decrease."}, "[2]": {"system": "K. pneumoniae ATCC 700603", "test": "microbe, parasite or virus in culture", "conditions": "for MIC: Klebsiella pneumoniae; for RO7223280 MIC 100%: K. pneumoniae ATCC 700603, read at 100%", "procedure": "as §1"}, "[3]": {"system": "P. aeruginosa ATCC 27853", "test": "microbe, parasite or virus in culture", "conditions": "for MIC: Pseudomonas aeruginosa; for RO7223280 MIC 100%: P. aeruginosa ATCC 27853, read at 100%", "procedure": "as §1"}, "[4]": {"test": "Micronucleus test (MNT)"}, "[5]": {"test": "Ames"}, "[6]": {"biological_target": "CYP3A4 (Homo sapiens, UniProt P08684)", "sequence (P08684 whole entry)": "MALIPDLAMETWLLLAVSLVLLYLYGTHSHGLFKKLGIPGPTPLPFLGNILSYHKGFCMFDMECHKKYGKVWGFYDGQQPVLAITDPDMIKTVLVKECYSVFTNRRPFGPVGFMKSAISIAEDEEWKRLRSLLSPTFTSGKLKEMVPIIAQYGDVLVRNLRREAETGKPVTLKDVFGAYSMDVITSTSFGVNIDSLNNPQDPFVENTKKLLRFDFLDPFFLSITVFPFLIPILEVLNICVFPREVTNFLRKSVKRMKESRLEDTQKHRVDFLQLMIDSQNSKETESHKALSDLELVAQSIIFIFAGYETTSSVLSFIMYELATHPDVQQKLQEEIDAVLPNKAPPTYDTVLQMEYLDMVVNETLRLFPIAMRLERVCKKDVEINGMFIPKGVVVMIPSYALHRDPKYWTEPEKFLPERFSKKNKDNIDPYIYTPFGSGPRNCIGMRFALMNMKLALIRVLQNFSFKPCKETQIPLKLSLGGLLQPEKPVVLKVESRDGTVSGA", "test": "CYP inhibition", "type": "in vitro ADME"}, "[7]": {"biological_target": "CYP2D6 (Homo sapiens, UniProt P10635)", "sequence (P10635 whole entry)": "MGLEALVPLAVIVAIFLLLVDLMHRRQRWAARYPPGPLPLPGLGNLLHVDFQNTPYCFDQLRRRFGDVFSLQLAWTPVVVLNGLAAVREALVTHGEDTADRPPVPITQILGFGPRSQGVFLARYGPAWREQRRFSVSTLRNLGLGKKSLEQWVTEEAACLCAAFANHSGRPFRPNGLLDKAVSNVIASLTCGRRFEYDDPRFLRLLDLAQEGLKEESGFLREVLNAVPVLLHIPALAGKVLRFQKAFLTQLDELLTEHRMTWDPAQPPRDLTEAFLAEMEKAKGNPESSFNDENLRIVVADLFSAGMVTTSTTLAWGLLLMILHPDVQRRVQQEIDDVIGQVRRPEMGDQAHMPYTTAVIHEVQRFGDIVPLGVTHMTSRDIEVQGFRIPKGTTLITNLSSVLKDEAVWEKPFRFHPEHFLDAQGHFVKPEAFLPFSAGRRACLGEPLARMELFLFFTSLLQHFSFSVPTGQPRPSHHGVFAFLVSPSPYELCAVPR", "test": "CYP inhibition", "type": "in vitro ADME"}, "[8]": {"test": "GSH adduct", "type": "in vitro ADME"}}}
{"smiles": "CN1C(=O)[C@H](CCCCN)NC(=O)[C@H](CCCN)NCc2cccnc2Sc2c(Cl)ccc(Cl)c2CNC(=O)[C@@H]1Cc1c[nH]c2ccccc12", "note": "[RO7075573]", "values": [{"measurement": "MIC", "setting": "[1]; CAMHB, mode of at least three replicates (RO7036668 one replicate)", "value": ">64", "unit": "µg/mL"}, {"measurement": "MIC", "setting": "[1]; Escherichia coli, ATCC25922", "value": "> 64", "unit": "µg/mL"}, {"measurement": "MIC 100%", "setting": "[1]; Study LGC281440", "value": ">64", "unit": "µg/mL"}, {"measurement": "MIC 100%", "setting": "[1]; Study LGC282160", "value": ">64", "unit": "µg/mL"}, {"measurement": "MIC 100%", "setting": "[1]; Study LGC284879", "value": ">64", "unit": "µg/mL"}, {"measurement": "MIC 100%", "setting": "[1]; Study LGC285582", "value": ">64", "unit": "µg/mL"}, {"measurement": "MIC 100%", "setting": "[1]; Study LGC286210", "value": ">64", "unit": "µg/mL"}, {"measurement": "MIC 100%", "setting": "[1]; Study LGC293598", "value": ">64", "unit": "µg/mL"}, {"measurement": "MIC 100%", "setting": "[1]; Study LGC294355", "value": ">64", "unit": "µg/mL"}, {"measurement": "MIC 100%", "setting": "[1]; Study LGC295147", "value": ">64", "unit": "µg/mL"}, {"measurement": "MIC 100%", "setting": "[1]; Study LGC296813", "value": ">64", "unit": "µg/mL"}, {"measurement": "MIC 100%", "setting": "[1]; Study LGC299544", "value": ">64", "unit": "µg/mL"}, {"measurement": "MIC 100%", "setting": "[1]; Study LGC301026", "value": ">64", "unit": "µg/mL"}, {"measurement": "MIC 100%", "setting": "[1]; Study LGC308175", "value": ">64", "unit": "µg/mL"}, {"measurement": "MIC 100%", "setting": "[1]; Study ROC010", "value": ">64", "unit": "µg/mL"}, {"measurement": "MIC 100%", "setting": "[1]; Study ROC012", "value": ">64", "unit": "µg/mL"}, {"measurement": "MIC", "setting": "[2]; ATCC700603", "value": "> 64", "unit": "µg/mL"}, {"measurement": "MIC 100%", "setting": "[2]; Study LGC281440", "value": 32, "unit": "µg/mL"}, {"measurement": "MIC 100%", "setting": "[2]; Study LGC282160", "value": ">64", "unit": "µg/mL"}, {"measurement": "MIC 100%", "setting": "[2]; Study LGC284879", "value": ">64", "unit": "µg/mL"}, {"measurement": "MIC 100%", "setting": "[2]; Study LGC285582", "value": ">64", "unit": "µg/mL"}, {"measurement": "MIC 100%", "setting": "[2]; Study LGC286210", "value": ">64", "unit": "µg/mL"}, {"measurement": "MIC 100%", "setting": "[2]; Study LGC293598", "value": ">64", "unit": "µg/mL"}, {"measurement": "MIC 100%", "setting": "[2]; Study LGC294355", "value": ">64", "unit": "µg/mL"}, {"measurement": "MIC 100%", "setting": "[2]; Study LGC295147", "value": ">64", "unit": "µg/mL"}, {"measurement": "MIC 100%", "setting": "[2]; Study LGC296813", "value": ">64", "unit": "µg/mL"}, {"measurement": "MIC 100%", "setting": "[2]; Study LGC299544", "value": ">64", "unit": "µg/mL"}, {"measurement": "MIC 100%", "setting": "[2]; Study LGC301026", "value": ">64", "unit": "µg/mL"}, {"measurement": "MIC 100%", "setting": "[2]; Study LGC308175", "value": ">64", "unit": "µg/mL"}, {"measurement": "MIC 100%", "setting": "[2]; Study ROC010", "value": ">64", "unit": "µg/mL"}, {"measurement": "MIC 100%", "setting": "[2]; Study ROC012", "value": ">64", "unit": "µg/mL"}, {"measurement": "MIC", "setting": "[3]; ATCC27853", "value": "> 64", "unit": "µg/mL"}, {"measurement": "MIC 100%", "setting": "[3]; Study LGC281440", "value": 64, "unit": "µg/mL"}, {"measurement": "MIC 100%", "setting": "[3]; Study LGC282160", "value": ">64", "unit": "µg/mL"}, {"measurement": "MIC 100%", "setting": "[3]; Study LGC284879", "value": ">64", "unit": "µg/mL"}, {"measurement": "MIC 100%", "setting": "[3]; Study LGC285582", "value": ">64", "unit": "µg/mL"}, {"measurement": "MIC 100%", "setting": "[3]; Study LGC286210", "value": 64, "unit": "µg/mL"}, {"measurement": "MIC 100%", "setting": "[3]; Study LGC293598", "value": ">64", "unit": "µg/mL"}, {"measurement": "MIC 100%", "setting": "[3]; Study LGC294355", "value": ">64", "unit": "µg/mL"}, {"measurement": "MIC 100%", "setting": "[3]; Study LGC295147", "value": 64, "unit": "µg/mL"}, {"measurement": "MIC 100%", "setting": "[3]; Study LGC296813", "value": 64, "unit": "µg/mL"}, {"measurement": "MIC 100%", "setting": "[3]; Study LGC299544", "value": ">64", "unit": "µg/mL"}, {"measurement": "MIC 100%", "setting": "[3]; Study LGC301026", "value": ">64", "unit": "µg/mL"}, {"measurement": "MIC 100%", "setting": "[3]; Study LGC308175", "value": ">64", "unit": "µg/mL"}, {"measurement": "MIC 100%", "setting": "[3]; Study ROC010", "value": ">64", "unit": "µg/mL"}, {"measurement": "MIC 100%", "setting": "[3]; Study ROC012", "value": ">64", "unit": "µg/mL"}, {"measurement": "MNT", "setting": "[4]", "value": "Negative"}, {"measurement": "Ames", "setting": "[5]", "value": "Negative"}, {"measurement": "CYP inh. (3A4)", "setting": "[6]", "value": 16, "unit": "µM"}, {"measurement": "CYP inh. (2D6)", "setting": "[7]", "value": "> 50", "unit": "µM"}, {"measurement": "GSH adduct", "setting": "[8]", "value": "Clean"}]}
{"smiles": "CN1C(=O)[C@H](CCCCN)NC(=O)[C@H](CCCN)NCc2cccnc2Sc2c(Cl)ccc(-c3ccc(C(=O)O)cc3)c2CNC(=O)[C@@H]1Cc1c[nH]c2ccccc12", "note": "[RO7202110]", "values": [{"measurement": "MIC", "setting": "[1]; Escherichia coli, ATCC25922", "value": "> 64", "unit": "µg/mL"}, {"measurement": "MIC", "setting": "[2]; ATCC700603, CAMHB, mode of at least three replicates (RO7036668 one replicate)", "value": "> 64", "unit": "µg/mL"}, {"measurement": "MIC 100%", "setting": "[2]; Study LGC294355", "value": ">64", "unit": "µg/mL"}, {"measurement": "MIC 100%", "setting": "[2]; Study LGC295147", "value": ">64", "unit": "µg/mL"}, {"measurement": "MIC 100%", "setting": "[2]; Study LGC299544", "value": ">64", "unit": "µg/mL"}, {"measurement": "MIC 100%", "setting": "[2]; Study LGC308175", "value": ">64", "unit": "µg/mL"}, {"measurement": "MIC", "setting": "[3]; ATCC27853, CAMHB, mode of at least three replicates (RO7036668 one replicate)", "value": "> 64", "unit": "µg/mL"}, {"measurement": "MNT", "setting": "[4]", "value": "Negative"}, {"measurement": "Ames", "setting": "[5]", "value": "Negative"}, {"measurement": "CYP inh. (3A4)", "setting": "[6]", "value": ">50 (3A4) >50 (2C9) >50 (2D6) μM"}, {"measurement": "CYP inh. (2D6)", "setting": "[7]", "value": ">50 (3A4) >50 (2C9) >50 (2D6) μM"}, {"measurement": "GSH adduct", "setting": "[8]", "value": "Clean"}]}
{"smiles": "CN1C(=O)[C@H](CCCCN)NC(=O)[C@H](CCCN)NCc2cccnc2Sc2cccc(-c3ccc(C(=O)O)cc3)c2CNC(=O)[C@@H]1Cc1c[nH]c2ccccc12", "note": "[zosurabalpin]", "values": [{"measurement": "RO7223280 MIC 100%", "setting": "[1]; Study LGC296813", "value": ">64", "unit": "µg/mL"}, {"measurement": "RO7223280 MIC 100%", "setting": "[1]; Study LGC299544", "value": ">64", "unit": "µg/mL"}, {"measurement": "RO7223280 MIC 100%", "setting": "[1]; Study LGC308175", "value": ">64", "unit": "µg/mL"}, {"measurement": "MIC", "setting": "[1]; Escherichia coli, ATCC25922", "value": "> 64", "unit": "µg/mL"}, {"measurement": "RO7223280 MIC 100%", "setting": "[2]; Study LGC296813", "value": ">64", "unit": "µg/mL"}, {"measurement": "RO7223280 MIC 100%", "setting": "[2]; Study LGC299544", "value": ">64", "unit": "µg/mL"}, {"measurement": "RO7223280 MIC 100%", "setting": "[2]; Study LGC308175", "value": ">64", "unit": "µg/mL"}, {"measurement": "MIC", "setting": "[2]; ATCC700603", "value": "> 64", "unit": "µg/mL"}, {"measurement": "RO7223280 MIC 100%", "setting": "[3]; Study LGC296813", "value": ">64", "unit": "µg/mL"}, {"measurement": "RO7223280 MIC 100%", "setting": "[3]; Study LGC299544", "value": ">64", "unit": "µg/mL"}, {"measurement": "RO7223280 MIC 100%", "setting": "[3]; Study LGC308175", "value": ">64", "unit": "µg/mL"}, {"measurement": "MIC", "setting": "[3]; ATCC27853", "value": "> 64", "unit": "µg/mL"}, {"measurement": "MNT", "setting": "[4]", "value": "Negative"}, {"measurement": "Ames", "setting": "[5]", "value": "Negative"}, {"measurement": "CYP inh. (3A4)", "setting": "[6]", "value": ">50 (3A4) >50 (2C9) >50 (2D6) μM"}, {"measurement": "CYP inh. (2D6)", "setting": "[7]", "value": ">50 (3A4) >50 (2C9) >50 (2D6) μM"}, {"measurement": "GSH adduct", "setting": "[8]", "value": "Clean"}]}
